Laboratory results: patent EP1982595A1, “Insecticidal derivatives of substituted aminoheterocycles” (Bayer CropScience AG, priority 2007, dated 2008)
Like-named read-outs stand apart in the source and are kept apart here.

Key:
Myzus persicae = Myzus persicae - test (spray application); assay type: in vivo; details: read-out: activity (mortality in %)
Method: Myzus persicae - test; (spray application)
(§1) To produce a suitable preparation of active compound, 1 part by weight of active compound is mixed with the stated amount of solvent and emulsifier, and the concentrate is diluted with emulsifier-containing water to the desired concentration.
Chinese cabbage (Brassica pekinesis) leaf-disks infected with all instars of the green peach aphid (Myzus persicae), are sprayed with a preparation of the active ingredient at the desired concentration.
After the specified period of time, mortality in % is determined, 100% means that all aphids have been killed; 0% means that none of the aphids have been killed, […]

[1] = logP (acidic) / lgP (HCOOH), phys. data; assay type: physicochemical; details: for logP: acidic; for lgP (HCOOH): preparation examples, b176 prints logP (HCOOH)
Phaedon cochleariae = Phaedon cochleariae - test (spray application); assay type: in vivo; details: application rate of 500 g/ha, Chinese cabbage leaf-disks, mustard beetle larvae
Method: Phaedon cochlearlae - test (spray application)
To produce a suitable preparation of active compound, I part by weight of active compound is mixed with the stated amount of solvent and emulsifier, and the concentrate is diluted with emulsifier-containing water to the desired concentration.
Chinese cabbage (Brassica pekinesis) leaf-disks are treated by being sprayed with the preparation of the active compound of the desired concentration and are, after drying, infested with mustard beetle larvae (Phaedon cochleariae).
After the specified period of time, mortality in % is determined, 100 % means that all the beetle larvae have been killed; 0 % means that none of the beetle larvae have been killed.

Tetranychus urticae = Tetranychus urticae - test; OP-resistant (spray application); assay type: in vivo; details: application rate of 100 g/ha, French bean, all stages
Method: Tetranychus urticae - test; OP-resistant (spray application)
as §1
French bean (Phaseolus vulgaris) which are heavily infested with all stages of the two spotted spidermite (Tetranychus urticae), are sprayed with a preparation of the active ingredient at the desired concentration.
After the specified period of time, mortality in % is determined, 100% means that all spider mites have been killed and 0% means that none of the spider mites have been killed.

[2] = application rate of 500 g/ha, spray application, Chinese cabbage leaf-disks, all instars of the green peach aphid
[3] = Table I-1, read-out: Phys. data = logP (acidic)

For `S=C(NCc1ccccc1Cl)N1CCOC1=N[C@H]1CCc2ccccc21` [1-21], the mortality at 500 g/ha (Myzus persicae; [2]) was ≥ 80% and the logP [1, 3] was 4.97.

`CC(NC(=S)N1CCSC1=NC1CCc2c(F)cccc21)c1ccccc1` (centres unmarked) [2-31, 2-[aza(4-fluorindanyl)-methylene](1,3-thiazolidine-3-yl)(alphamethylbenzylamino)methane-1-thione] showed a Phys. data ([1]; Table I-2, key logP (acidic) is printed only in the head of Table I-1) of 5.47 and a logP ([1]; preparation example 3, text, read-out: logP (acidic)) of 5.47.

With `CC(NC(=S)N1CCOC1=NC1CCc2ccccc21)c1ccc(F)cc1` (centres unmarked) [1-36] the mortality at 500 g/ha (Myzus persicae; [2]) was ≥ 80% and the logP [1, 3] was 4.91.

With `COc1ccc(CNC(=S)N2CCOC2=N[C@H]2CCc3ccccc32)cc1OC` [1-26] the mortality at 500 g/ha (Myzus persicae; [2]) was ≥ 80% and the logP [1, 3] was 3.8.

`S=C(NCc1ncccn1)N1CCOC1=N[C@H]1CCc2ccccc21` [1-71] gave a logP [1, 3] of 2.92.

With `S=C(NCc1ccc2c(c1)OCO2)N1CCOC1=N[C@H]1CCc2ccccc21` [1-22] the mortality at 500 g/ha (Myzus persicae; [2]) was ≥ 80%, the mortality at 500 g/ha (Phaedon cochleariae) was ≥ 80% and the logP [1, 3] was 4.11.

For `S=C(NCc1ccc(Cl)cc1)N1CCOC1=N[C@H]1CCc2ccccc21` [1-19], the mortality at 500 g/ha (Myzus persicae; [2]) was ≥ 80% and the logP [1, 3] was 5.02.

In the case of `CC(NC(=S)N1CCOC1=N[C@H]1CCc2ccccc21)c1ccc(Cl)cc1` (some centres unmarked) [1-34], the mortality at 500 g/ha (Myzus persicae; [2]) is reported as ≥ 80% and the logP [1, 3] is reported as 5.64.

For `C=CCNC(=S)N1CCOC1=NC1CCc2ccccc21` (centres unmarked) [1-47], the mortality at 500 g/ha (Myzus persicae; [2]) was ≥ 80% and the logP [1, 3] was 3.85.

In the case of `S=C(NCc1cccnc1)N1CCOC1=N[C@H]1CCc2ccccc21` [1-44], the mortality at 500 g/ha (Myzus persicae; [2]) is reported as ≥ 80% and the logP [1, 3] is reported as 2.17.

In the case of `CC(NC(=S)N1CCOC1=N[C@H]1CCc2ccccc21)c1ccccc1Cl` (some centres unmarked) [1-32], the mortality at 500 g/ha (Myzus persicae; [2]) is reported as ≥ 80% and the logP [1, 3] is reported as 5.31.

`CC(NC(=S)N1CCOC1=N[C@H]1CCc2ccccc21)c1ccccc1` (some centres unmarked) [1-29] gave a logP [1, 3] of 4.85.

In the case of `CC(NC(=S)N1CCOC1=N[C@H]1CCc2ccccc21)c1cccc(Cl)c1` (some centres unmarked) [1-35], the mortality at 500 g/ha (Myzus persicae; [2]) is reported as ≥ 80%, the mortality at 500 g/ha (Phaedon cochleariae) is reported as ≥ 80% and the logP [1, 3] is reported as 5.31.

In the case of `S=C(NCc1ccc(Cl)nc1)N1CCOC1=N[C@H]1CCc2ccccc21` [1-40], the logP [1, 3] is reported as 4.04.

In the case of `S=C(NCc1ccncc1)N1CCOC1=N[C@H]1CCc2ccccc21` [1-43], the logP [1, 3] is reported as 1.87.

In the case of `S=C(NCc1cccc(Cl)c1)N1CCOC1=N[C@H]1CCc2ccccc21` [1-20], the mortality at 500 g/ha (Myzus persicae; [2]) is reported as ≥ 80% and the logP [1, 3] is reported as 4.97.

With `Fc1ccc(CNC(=S)N2CCOC2=N[C@H]2CCc3ccccc32)cc1` [1-24] the mortality at 500 g/ha (Myzus persicae; [2]) was ≥ 80% and the logP [1, 3] was 4.51.

In the case of `C=CCNC(=O)N1CCOC1=NC1CCc2ccccc21` (centres unmarked) [1-48], the logP [1, 3] is reported as 3.85.

`S=C(NCc1ccco1)N1CCOC1=N[C@H]1CCc2ccccc21` [1-45] gave a logP [1, 3] of 4.17.

In the case of `S=C(NCc1ccccc1)N1CCOC1=N[C@H]1CCc2ccccc21` [1-2, N-benzyl-2-[(1S)-2,3-dihydro-1H-inden-1-ylimino]-1,3-oxazolidiner3-carbothioamide], the mortality at 500 g/ha (Myzus persicae; [2]) is reported as ≥ 80%, the mortality at 100 g/ha (Tetranychus urticae) is reported as ≥ 80% and the logP [1, 3] is reported as 4.46. The “lgP (HCOOH)” value [1] was 4.46.

In the case of `Cc1ccc(CNC(=S)N2CCOC2=N[C@H]2CCc3ccccc32)cc1` [1-23], the mortality at 500 g/ha (Myzus persicae; [2]) is reported as ≥ 80% and the logP [1, 3] is reported as 4.91.

With `S=C(NCCc1ccc(Cl)cc1)N1CCOC1=N[C@H]1CCc2ccccc21` [1-38] the mortality at 500 g/ha (Myzus persicae; [2]) was ≥ 80% and the logP [1, 3] was 5.25.

In the case of `S=C(NCc1ccccc1)N1CCOC1=NC1CCc2ccccc21` (centres unmarked) [1-1], the mortality at 500 g/ha (Myzus persicae; [2]) is reported as ≥ 80% and the logP [1, 3] is reported as 4.46.

In the case of `S=C(NCc1ccccc1)N1CCOC1=N[C@H]1CCCc2ccccc21` [3-2, N-benzyl-2-[(1S)-1,2,3,4-tetrahydronaphthaline-1-ylimino]-1,3-oxazolidine-3-carbothioamide], the mortality at 500 g/ha (Myzus persicae; in Brassica rapa) is reported as ≥ 80%, the Phys. data ([1]; Table I-3, logP (HCOOH), i.e. acidic conditions) is reported as 4.67 and the “lgP (HCOOH)” value [1] is reported as 4.67.

For `COc1ccc(CNC(=S)N2CCOC2=N[C@H]2CCc3ccccc32)cc1` [1-25], the mortality at 500 g/ha (Myzus persicae; [2]) was ≥ 80% and the logP [1, 3] was 4.28.

Work on `CC(C)=CCNC(=S)N1CCOC1=N[C@H]1CCc2ccccc21` [1-72] yielded a logP [1, 3] of 4.78.

For `S=C(NCCc1cccc(Cl)c1)N1CCOC1=N[C@H]1CCc2ccccc21` [1-39], the mortality at 500 g/ha (Myzus persicae; [2]) was ≥ 80%, the mortality at 500 g/ha (Phaedon cochleariae) was ≥ 80% and the logP [1, 3] was 5.19.

In the case of `S=C(NCc1ccc(Cl)cc1Cl)N1CCOC1=N[C@H]1CCc2ccccc21` [1-27], the mortality at 500 g/ha (Myzus persicae; [2]) is reported as ≥ 80%, the mortality at 500 g/ha (Phaedon cochleariae) is reported as ≥ 80% and the logP [1, 3] is reported as 5.65.
